The values that follow come from ChEMBL document CHEMBL1143192, “Anti-HIV-1 entry optimization of novel imidazopiperidine-tropane CCR5 antagonists” (Bioorg Med Chem Lett, 2008).

Common to all, as to assay type: ADME, organism-based
Data set [1] can be described thus: Cmax in rat at 5 mg/kg, iv. Also on record: dose 5 mg/kg, route intravenous. Conditions: in vivo.
Data set [2] can be described thus: AUC in rat at 5 mg/kg, iv. More on the design: dose 5 mg/kg, route intravenous. Conditions: plasma.
Data set [3] in a line: Half life in rat at 30 mg/kg, po. The note with it: in vivo. Also on record: dose 30 mg/kg, route oral.
A short description of data set [4]: Clearance in rat at 5 mg/kg, iv. Conditions: in vivo. Also on record: dose 5 mg/kg, route intravenous.
A short description of data set [5]: Oral bioavailability in rat at 30 mg/kg. The note with it: in vivo.
A short description of data set [6]: AUC in rat at 30 mg/kg, po. More on the design: dose 30 mg/kg, route oral. The note with it: plasma.
The nature of data set [7]: Half life in rat at 5 mg/kg, iv. Also on record: dose 5 mg/kg, route intravenous. The note with it: in vivo.
Data set [8] can be described thus: Cmax in rat at 30 mg/kg, po. More on the design: dose 30 mg/kg, route oral. The note with it: in vivo.

For `CC(=O)N1CCc2c(nc(C)n2[C@@H]2C[C@H]3CC[C@@H](C2)N3CCCN(C(=O)Nc2ccc(C(F)(F)F)cc2)c2ccccc2)C1`, the Cmax in data set [1] was found to be 860 ng/mL; in data set [8], 540 ng/mL. In addition, the values for the AUC in data set [2] and in data set [6] were 2890 ng·h/mL and 8990 ng·h/mL, respectively. Besides, the half-life in data set [3] is 7.2 h; in data set [7], 10.7 h. The molecule also returned a clearance in data set [4] of 28.8 mL/min/kg. The molecule also gave a bioavailability in data set [5] of 52%.

The term Cmax denotes the highest concentration seen after dosing. Usually AUC stands for concentration integrated over time. A high value points to high exposure. As a reminder, the half-life is how long it takes for the measured level to halve. Broadly, the clearance is the volume of plasma or blood freed of the substance per unit of time. A high value points to efficient removal. In general, bioavailability refers to dose-corrected exposure relative to a reference, in per cent. A high value points to good availability.
